Experimental data: patent US20050101595A1, “N-containing cycloalkyl-substituted amino-thiazole derivatives and pharmaceutical compositions for inhibiting cell proliferation and methods for their use” (PFIZER INC., priority 2003, published 2005)

What follows are molecules tested on HCT-116 cell line (assay: Inhibition of cell growth, tetrazolium salt (MTT) assay). Conditions: HCT116 cells; compound at 250 nM; 0.25 µM.
Assay type: cell-based
Experimental: Inhibition of Cell Growth: Assessment of Cytotoxicity:
Inhibition of cell growth was measured using the tetrazolium salt assay, which is based on the ability of viable cells to reduce 3-(4,5-dimethylthiazol-2-yl)-2,5-[2H]-diphenyltetrazolium bromide (MTT) to formazan (Mossman, Journal of Immunological Methods, vol. 65 (1983), pp. 55-58). The water-insoluble purple formazan product was then detected spectrophotometrically. The HCT-116 cell line was used as a representative cancer cell line and grown in 96-well plates. Cells were plated in McCoy's 5A Medium at a volume of 135 μl/well. Plates were incubated for four hours before addition of inhibitor compounds. Different concentrations of inhibitor compounds were added in 0.5% (v/v) dimethylsulfoxide (15 μLuwell), and cells were incubated at 37° C. (5% CO2) for three to five days. At the end of the incubation, MTT was added to a final concentration of 0.2 mg/mL, and cells were incubated for 4 hours more at 37° C. After centrifugation of the plates and removal of medium, the absorbance of the formazan (solubilized in dimethylsulfoxide) was measured at 540 nm. […] All results were compared to control cells treated only with 0.5% (v/v) dimethylsulfoxide.

| Structure (SMILES) | % Inhibition HCT116 @ 250 nM [%] |
| --- | --- |
| Nc1nc(NC2CCN(S(=O)(=O)CCNCc3cccnc3)CC2)sc1C(=O)c1c(F)cccc1F [Example S84] | 12 |
| N#CCNCCS(=O)(=O)N1CCC(Nc2nc(N)c(C(=O)c3c(F)cccc3F)s2)CC1 [Example S128] | 86 |

Same assay, conditions: Homo sapiens, HCT-116, HCT116 cells; compound at 250 nM; read-out: % Inhibition HCT116 @ 250 nM

| Structure (SMILES) | inhibition at 0.25 µM [%] |
| --- | --- |
| CN1CCCN(CCS(=O)(=O)N2CCC(Nc3nc(N)c(C(=O)c4c(F)cccc4F)s3)CC2)CC1 [Example S176] | 17 |
| CC1CCCC(C)N1CCS(=O)(=O)N1CCC(Nc2nc(N)c(C(=O)c3c(F)cccc3F)s2)CC1 (stereo not shown) [Example S14] | 91 |
| CC(C)N(CCNCCS(=O)(=O)N1CCC(Nc2nc(N)c(C(=O)c3c(F)cccc3F)s2)CC1)C(C)C [Example S134] | 17 |
| Nc1nc(NC2CCN(S(=O)(=O)CCNCCc3cccs3)CC2)sc1C(=O)c1c(F)cccc1F [Example S148] | 34 |
| N#CCCNCCS(=O)(=O)N1CCC(Nc2nc(N)c(C(=O)c3c(F)cccc3F)s2)CC1 [Example S132] | 20 |
| CC(C)C(NCCS(=O)(=O)N1CCC(Nc2nc(N)c(C(=O)c3c(F)cccc3F)s2)CC1)C(C)C [Example S135] | 100 |
| CN(CCS(=O)(=O)N1CCC(Nc2nc(N)c(C(=O)c3c(F)cccc3F)s2)CC1)C1CCCCC1 [Example S9] | 43 |
| Nc1nc(NC2CCN(S(=O)(=O)CCN3CCCC3)CC2)sc1C(=O)c1c(F)cccc1F [Example S21] | 35 |
| CN(C)[C@@H]1CCN(CCS(=O)(=O)N2CCC(Nc3nc(N)c(C(=O)c4c(F)cccc4F)s3)CC2)C1 [Example S62] | 6 |
| Nc1nc(NC2CCN(S(=O)(=O)CCNCCc3ccccc3)CC2)sc1C(=O)c1c(F)cccc1F [Example S116] | 60 |
| CCN(CCS(=O)(=O)N1CCC(Nc2nc(N)c(C(=O)c3c(F)cccc3F)s2)CC1)CC(C)(C)O [Example S35] | 58 |
| Cc1cc(C)cc(CNCCS(=O)(=O)N2CCC(Nc3nc(N)c(C(=O)c4c(F)cccc4F)s3)CC2)c1 [Example S143] | 55 |
| COc1ccc(CNCCS(=O)(=O)N2CCC(Nc3nc(N)c(C(=O)c4c(F)cccc4F)s3)CC2)cc1 [Example S104] | 31 |
| CN(CC#N)CCS(=O)(=O)N1CCC(Nc2nc(N)c(C(=O)c3c(F)cccc3F)s2)CC1 [Example S53] | 17 |
| CC(NCCS(=O)(=O)N1CCC(Nc2nc(N)c(C(=O)c3c(F)cccc3F)s2)CC1)c1ccc(F)cc1 (stereo not shown) [Example S144] | 43 |
| CC1CCN(CCNCCS(=O)(=O)N2CCC(Nc3nc(N)c(C(=O)c4c(F)cccc4F)s3)CC2)CC1 [Example S163] | 25 |
| Nc1nc(NC2CCN(S(=O)(=O)CCNCC(O)c3ccccc3)CC2)sc1C(=O)c1c(F)cccc1F (stereo not shown) [Example S109] | 19 |
| COCC(C)NCCS(=O)(=O)N1CCC(Nc2nc(N)c(C(=O)c3c(F)cccc3F)s2)CC1 (stereo not shown) [Example S89] | 17 |
| CCCCN(CCO)CCS(=O)(=O)N1CCC(Nc2nc(N)c(C(=O)c3c(F)cccc3F)s2)CC1 [Example S36] | 17 |
| Nc1nc(NC2CCN(S(=O)(=O)CCNCCN3CCOCC3)CC2)sc1C(=O)c1c(F)cccc1F [Example S87] | 13 |
| Nc1nc(NC2CCN(S(=O)(=O)CCNCc3ccco3)CC2)sc1C(=O)c1c(F)cccc1F [Example S72] | 19 |
| CCC(CO)NCCS(=O)(=O)N1CCC(Nc2nc(N)c(C(=O)c3c(F)cccc3F)s2)CC1 (stereo not shown) [Example S92] | 8 |
| C#CCNCCS(=O)(=O)N1CCC(Nc2nc(N)c(C(=O)c3c(F)cccc3F)s2)CC1 [Example S119] | 20 |
| CN(CCc1ccccc1)CCS(=O)(=O)N1CCC(Nc2nc(N)c(C(=O)c3c(F)cccc3F)s2)CC1 [Example S29] | 18 |
| CC(C)[C@@H](CO)NCCS(=O)(=O)N1CCC(Nc2nc(N)c(C(=O)c3c(F)cccc3F)s2)CC1 [Example S156] | 17 |
| Nc1nc(NC2CCN(S(=O)(=O)CCN3CCCC(CO)C3)CC2)sc1C(=O)c1c(F)cccc1F (stereo not shown) [Example S23] | 18 |
